Measurements as given in doi:10.1101/2020.10.22.350827v1 (biorxiv, 2020).
Positions count from the first letter of the chain named.

Key:
[1] = biological target: T1, Nluc-A1R (adenosine A1 receptor) Q9A (Homo sapiens, UniProt P30542, Q9A); assay: cell-based; set-up: species or system HEK 293
T1 sequence (P30542 1-326 Q9A): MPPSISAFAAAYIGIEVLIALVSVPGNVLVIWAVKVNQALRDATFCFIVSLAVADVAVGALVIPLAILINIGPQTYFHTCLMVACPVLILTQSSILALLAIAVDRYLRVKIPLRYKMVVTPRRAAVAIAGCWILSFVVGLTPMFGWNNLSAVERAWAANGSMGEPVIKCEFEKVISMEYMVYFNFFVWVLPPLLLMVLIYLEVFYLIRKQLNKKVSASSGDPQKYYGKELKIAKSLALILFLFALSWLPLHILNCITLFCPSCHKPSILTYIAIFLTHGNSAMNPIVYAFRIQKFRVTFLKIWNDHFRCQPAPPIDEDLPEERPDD

[2] = biological target: T2, Nluc-A1R (adenosine A1 receptor) (Homo sapiens, UniProt P30542, T257A); assay: NanoBRET competition binding, live HEK […] cells; assay type: cell-based
T2 sequence (P30542 1-326 T257A): T1 sequence (P30542 1-326 Q9A) with A9Q, T257A

[3] = biological target: T3, Nluc-A1R (adenosine A1 receptor) N70A (Homo sapiens, UniProt P30542, N70A); assay: cell-based; set-up: species or system HEK 293
T3 sequence (P30542 1-326 N70A): T1 sequence (P30542 1-326 Q9A) with A9Q, N70A

[4] = biological target: T4, Nluc-A1R (adenosine A1 receptor) (Homo sapiens, UniProt P30542, Y271A); assay: NanoBRET competition binding, live HEK […] cells; assay type: cell-based
T4 sequence (P30542 1-326 Y271A): T1 sequence (P30542 1-326 Q9A) with A9Q, Y271A

[5] = biological target: T5, Nluc-A1R (adenosine A1 receptor) (Homo sapiens, UniProt P30542, I175A); assay: NanoBRET competition binding, live HEK […] cells; assay type: cell-based
T5 sequence (P30542 1-326 I175A): T1 sequence (P30542 1-326 Q9A) with A9Q, I175A

[6] = biological target: T6, Nluc-A1R (adenosine A1 receptor) H264A (Homo sapiens, UniProt P30542, H264A); assay: cell-based; set-up: species or system HEK 293
T6 sequence (P30542 1-326 H264A): T1 sequence (P30542 1-326 Q9A) with A9Q, H264A

[7] = biological target: T7, Nluc-A1R (adenosine A1 receptor) L253F (Homo sapiens, UniProt P30542, L253F); assay: cell-based; set-up: species or system HEK 293
T7 sequence (P30542 1-326 L253F): T1 sequence (P30542 1-326 Q9A) with A9Q, L253F

`OC[C@H]1O[C@@H](n2cnc3c(N[C@@H]4CCC[C@H]4O)ncnc32)[C@H](O)[C@@H]1O` [compound 6, HOCPA] showed a Ki [1] of 1950 nM, a Ki [2] of 115 nM and a Ki [3] of 891 nM. For the same compound, the Ki [4] was 7080 nM, the Ki [5] was 2190 nM and the Ki [6] was 955 nM. It also gave a Ki [7] of 1620 nM.
